Patent US8367361B2, “Methods using O6-alkylguanine-DNA alkytransferase” (Ecole Polytechnique Federale de Lausanne, priority 2001, dated 2013)

Legend:
[1] = target: T1, hAGT (Homo sapiens, UniProt P16455); conditions: cited from earlier work
T1 sequence (P16455 1-207): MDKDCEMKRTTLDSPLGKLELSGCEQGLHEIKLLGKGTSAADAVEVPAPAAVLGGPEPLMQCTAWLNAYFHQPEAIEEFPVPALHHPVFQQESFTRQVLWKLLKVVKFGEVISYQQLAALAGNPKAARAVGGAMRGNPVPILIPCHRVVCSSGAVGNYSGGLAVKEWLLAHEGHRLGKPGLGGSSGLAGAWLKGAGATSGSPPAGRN

[2] = target: T2, endogenous hAGT in human cells (HEK 293) (Homo sapiens, UniProt P16455); experiment: Fluorescence labelling of endogenous hAGT in HEK 293 cells, confocal microscopy; format: cell-based; conditions: HEK 293 cells preincubated overnight with 1 μM O6-benzylguanine before BG-AcFc
T2 construct: endogenous hAGT in human cells (HEK 293); endogenous in cells; host or cells: HEK 293
T2 sequence (P16455 1-207): T1 sequence (P16455 1-207)
Text: (C) is an overlay of the images obtained from fluorescence and light microscopy.
Images were then taken with a confocal fluorescence microscope (Ext. 492 nm; Em. 510 nm). […] This should inactivate the endogenous hAGT and therefore prevent the accumulation of the fluorescence in the nucleus. […] The substrate's emission wavelength is 519 nm (excitation at 237, 323 and 490 nm respectively).

SMILES: Nc1nc(OCc2ccccc2)c2nc[nH]c2n1 [O^6-benzylguanine]
- second order rate constant of reaction with hAGT [1]: approximately 10^3 sec^−1 M^−1
- accumulation of BG-AcFc fluorescence in the nucleus after preincubation [2]: no accumulation of fluorescence in the nucleus was observed
